Test results published in the NIST ThermoML archive (doi:10.1021/je300170y).
± gives the expanded uncertainty stated by the source.

Conditions: Crystal 1; Chromatography

Normal melting temperature [°C] | Compound
170.20 ± 1 | O=C(O)[C@H](O)[C@@H](O)C(=O)O [(2R,3R)-2,3-dihydroxybutanedioic acid]
206.00 | O=C(O)[C@H](O)[C@@H](O)C(=O)O (relative stereo) [(R*,R*)-2,3-dihydroxybutanedioic acid]
